Experimental data from PubChem BioAssay AID192 (DTP/NCI, 2004).
Where “and” joins values, the source holds several entries; their conditions need not be identical. Identical values can stand only once. Toxic doses and inconclusive results are not listed.

Tested on: BDF1 mice, B16 melanoma ip, median survival T/C
Assay: NCI In Vivo Anticancer Drug Screen. Data for tumor model B16 Melanoma (intraperitoneal) in B6D2F1 (BDF1) mice
Conditions: endpoint: median survival time, higher = longer survival
Method in brief: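 In this screen, activity was judged from survival or tumor size in treated versus vehicle-treated tumor-bearing mice, reported as T/C.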

[1] = dose: 25.0 mg/kg/injection, schedule: Q01DX009 (ip), vehicle: saline with Tween-80
[2] = dose: 50.0 mg/kg/injection, schedule: Q01DX009 (ip), vehicle: saline with Tween-80
[3] = dose: 50.0 mg/kg/injection, schedule: Q01DX009 (ip), vehicle: saline
[4] = dose: 100.0 mg/kg/injection, schedule: Q01DX009 (ip), vehicle: saline with Tween-80
[5] = dose: 100.0 mg/kg/injection, schedule: Q01DX009 (ip), vehicle: saline
[6] = dose: 200.0 mg/kg/injection, schedule: Q01DX009 (ip), vehicle: saline with Tween-80
[7] = dose: 200.0 mg/kg/injection, schedule: Q01DX009 (ip), vehicle: saline
[8] = dose: 100.0 mg/kg/injection, schedule: Q01DX009 (ip), vehicle: Klucel (hydroxypropylcellulose) (HPC)
[9] = dose: 200.0 mg/kg/injection, schedule: Q01DX009 (ip), vehicle: Klucel (hydroxypropylcellulose) (HPC)

CCC(C)(CC)OC(N)=O
T/C [1]: 112 % of control | T/C (dose: 25.0 mg/kg/injection, schedule: Q01DX009 (ip), vehicle: saline): 95 % of control | T/C [2]: 112 % of control | T/C [3]: 95 % of control | T/C [4]: 105 % of control | T/C [5]: 100 % of control | T/C [6]: 104 % of control | T/C [7]: 95 % of control

CC1CN1C(=O)NCCCCCCNC(=O)N1CC1C (centres undefined)
T/C (dose: 1.25 mg/kg/injection, schedule: Q01DX009 (ip), vehicle: Klucel (hydroxypropylcellulose) (HPC)): 151 % of control | T/C (dose: 1.25 mg/kg/injection, schedule: Q01DX009 (ip), vehicle: saline): 152 % of control | T/C (dose: 2.5 mg/kg/injection, schedule: Q01DX009 (ip), vehicle: saline): 180 % of control | T/C (dose: 5.0 mg/kg/injection, schedule: Q01DX009 (ip), vehicle: Klucel (hydroxypropylcellulose) (HPC)): 158 % of control | T/C (dose: 5.0 mg/kg/injection, schedule: Q01DX009 (ip), vehicle: saline): 202 % of control

S=C(Nc1ccccc1)Nc1ccccc1S
T/C [8]: 95 % of control and 107 % of control | T/C [9]: 98 % of control and 111 % of control

CCOC(=O)C(NC(=O)NC)C(=O)OCC
T/C (dose: 75.0 mg/kg/injection, schedule: Q01DX009 (ip), vehicle: Klucel (hydroxypropylcellulose) (HPC)): 102 % of control | T/C (dose: 150.0 mg/kg/injection, schedule: Q01DX009 (ip), vehicle: Klucel (hydroxypropylcellulose) (HPC)): 103 % of control | T/C (dose: 300.0 mg/kg/injection, schedule: Q01DX009 (ip), vehicle: Klucel (hydroxypropylcellulose) (HPC)): 100 % of control

O=C(Cl)c1ccccc1S(=O)(=O)N(CCOc1ccccc1)c1ccccc1
T/C [8]: 90 % of control | T/C [9]: 96 % of control | T/C (dose: 400.0 mg/kg/injection, schedule: Q01DX009 (ip), vehicle: Klucel (hydroxypropylcellulose) (HPC)): 87 % of control

O=C(Oc1ccc(Cl)cc1)c1ccc(Cl)cc1
T/C (dose: 75.0 mg/kg/injection, schedule: Q04DX003 (ip), vehicle: Klucel (hydroxypropylcellulose) (HPC)): 100 % of control

COC(=O)C12OCC34C(CC5C(C)=C(O)C(=O)CC5(C)C3C(O)C1O)OC(=O)C(OC(=O)/C=C(\C)C(C)(C)O)C24 (centres undefined)
T/C (dose: 0.05 mg/kg/injection, schedule: Q01DX009 (ip), vehicle: saline with Tween-80): 124 % of control | T/C (dose: 0.1 mg/kg/injection, schedule: Q01DX009 (ip), vehicle: saline with Tween-80): 150 % of control | T/C (dose: 0.2 mg/kg/injection, schedule: Q01DX009 (ip), vehicle: saline): 159 % of control | T/C (dose: 0.4 mg/kg/injection, schedule: Q01DX009 (ip), vehicle: saline with Tween-80): 152 % of control | T/C (dose: 0.4 mg/kg/injection, schedule: Q01DX009 (ip), vehicle: saline): 153 % of control | T/C (dose: 0.8 mg/kg/injection, schedule: Q01DX009 (ip), vehicle: saline with Tween-80): 172 % of control | T/C (dose: 1.6 mg/kg/injection, schedule: Q01DX009 (ip), vehicle: saline with Tween-80): 161 % of control

C1CC[N-]CC1.C1CC[N-]CC1.C1CC[N-]CC1.[Cl][Rh]([Cl])[Cl]
T/C (dose: 2.0 mg/kg/injection, schedule: Q01DX009 (ip), vehicle: saline): 93 % of control | T/C (dose: 4.0 mg/kg/injection, schedule: Q01DX009 (ip), vehicle: saline): 99 % of control | T/C (dose: 6.25 mg/kg/injection, schedule: Q01DX009 (ip), vehicle: saline): 109 % of control | T/C (dose: 6.25 mg/kg/injection, schedule: Q01DX009 (ip), vehicle: suspension in saline): 103 % of control | T/C (dose: 8.0 mg/kg/injection, schedule: Q01DX009 (ip), vehicle: saline): 103 % of control | T/C (dose: 12.5 mg/kg/injection, schedule: Q01DX009 (ip), vehicle: saline with Tween-80): 98 % of control | T/C (dose: 12.5 mg/kg/injection, schedule: Q01DX009 (ip), vehicle: suspension in saline): 103 % of control | T/C (dose: 16.0 mg/kg/injection, schedule: Q01DX009 (ip), vehicle: saline): 104 % of control | T/C [1]: 87 % of control | T/C (dose: 25.0 mg/kg/injection, schedule: Q01DX009 (ip), vehicle: suspension in saline): 110 % of control | T/C (dose: 32.0 mg/kg/injection, schedule: Q01DX009 (ip), vehicle: saline): 121 % of control | T/C [2]: 93 % of control | T/C (dose: 50.0 mg/kg/injection, schedule: Q01DX009 (ip), vehicle: suspension in saline): 110 % of control | T/C [4]: 94 % of control | T/C (dose: 100.0 mg/kg/injection, schedule: Q01DX009 (ip), vehicle: suspension in saline): 115 % of control | T/C [6]: 100 % of control | T/C (dose: 200.0 mg/kg/injection, schedule: Q01DX009 (ip), vehicle: suspension in saline): 112 % of control

CC(C)(C)NC(=O)CCC(CC(=O)NC(C)(C)C)S(=O)(=O)O (centres undefined)
T/C [3]: 118 % of control | T/C [5]: 112 % of control | T/C [7]: 93 % of control
